Assay results reported in patent US20230009145A1, “INHIBITION OF TMEM16A BY BENZBROMARONE OR NICLOSAMIDE FOR TREATING POLYCYSTIC KIDNEY DISEASE AND/OR POLYCYSTIC LIVER DISEASE” (UNIVERSITÄT REGENSBURG, priority 2019, published 2023).
“Also recorded” adds a separate entry of the source.

Experiments:
M1 collecting duct cells [1] = assay: M1 renal organoid / cyst model (organoid/cyst volume in matrigel); format: cell-based, mouse; details: for increase in cyst volume upon knockdown of PKD1/PKD2: M1 organoids, shPKD1/shPKD2, 5 μM inhibitor
Method: M1 cells were resuspended as a single-cell suspension in 50/50% Matrigel/type I collagen and transferred into 24-well plates (30×10^3 cells/well, four wells per condition) for 9 days. Medium was changed every 3 days. Every 3 days thirty random visual fields per well were photographed with an Axiovert 200 microscope (Zeiss, Germany). Cyst area of the lumina (˜30-150 cysts per condition and single experimental procedure) were measured with AxioVision (Zeiss, Germany). Cyst volume was then estimated using the formula for the volume of a sphere, 4/3πr^3.

M1 collecting duct cells [2] = assay: Ki-67 proliferation staining in M1 organoids/cysts; format: cell-based, mouse; details: M1 organoids, shPKD1/shPKD2, 5 μM inhibitor
Method: M1 cells grown under confluent conditions for 4 days on glass coverslips and M1 organoids grown for 6 days were fixed for 10 min with methanol at −20° C. Organoids were isolated with ice cold 5 mM EDTA in PBS and seeded in poly-L-lysine coated coverslips. After seeded, cells were fixed for 10 min with methanol at −20° C. After washing, the cells were permeabilized with 0.5% (v/v, PBS) Triton X-100 for 10 min and blocked with 1% (w/v, PBS) bovine serum albumin for 1 h at room temperature. The cells were incubated overnight with primary antibodies (moo) against rabbit anti-TMEM16A (Davids Biotechnologie, Regensburg, Germany), or rat anti-Ki-67 (DAKO, M7249, Germany) or mouse anti-acetylated tubulin (T7451, Sigma-Aldrich, Germany). Binding of the primary antibody was visualized by incubation with appropriate secondary antibodies conjugated with Alexa Fluor 488 or Alexa Fluor 546 (1:300, Molecular Probes, Invitrogen). Nuclei were stained with Hoe33342 ([…] PBS, AppliChem, Darmstadt, Germany). Glass coverslips were mounted on glass slides with fluorescent mounting medium (DakoCytomation, Hamburg, Germany) and examined with an ApoTome Axiovert 200M fluorescence microscope (Zeiss, Germany).

[3] = system: mouse primary renal epithelial and M1 collecting duct cells; assay: Measurement of [Ca2+]i (Fura-2); format: cell-based; details: for enhanced Ca2+ entry (SOCE) / enhanced CPA-induced store release: PKD1/PKD2 knockout cells; for enhanced Ca2+ entry (SOCE): 5 μM; for enhanced CPA-induced store release: CPA 10 μM, inhibitor 5 μM
Method: Primary cilium and membrane Ca^2+ signals were detected after MDCK M2 and C7 cell were transfected with 5HT6-mCherry-GECO1.0 (5HT6-GECO, Addgene, Cambridge, Mass., USA). Cells were grown to confluence in glass coverslips and serum starved for 4-6 days to induce cilium formation. Afterwards, the cells were mounted and perfused in Ringer's solution. The mCherry fluorescence of the indicator was used to localize the Ca^2+ sensor. Therefore, before each experiment, a photo was taken exciting the 5HT6-GECO at 560 nm, and the emission was recorded between 620±30 nm using a CCD-camera (CoolSnap HQ, Visitron Systems, Germany). To measure the ciliary Ca^2+ changes, 5HT6-GECO was excited at 485/405 nm, and the emission was recorded between 535±12.5 nm. The results for [Ca^2+ ]cilium and [Ca^2+]cyt were obtained at 485/405 nm changes and given in ratio. Measurement of the global cytosolic Ca^2+ changes were performed as described recently. In brief, cells were loaded with 5 μM Fura-2, AM (Molecular Probes) in OptiMEM (Invitogen) with 0.02% pluronic (Molecular Probes) for 1 h at RT and 30 min at 37° C. Fura-2 was excited at 340/380 nm, and the emission was recorded between 470 and 550 nm using a CCD-camera (CoolSnap HQ, Visitron Systems, Germany). Control of experiment, imaging acquisition, and data analysis were done with the software package Meta-Fluor (Universal imaging, USA). [Ca2+]i was calculated from the 340/380 nm fluorescence ratio after background subtraction. The formula used to calculate [Ca^2+]i was [Ca^2+]i=Kd×(R−Rmin)/(Rmax−R)×(Sf2/Sb2), where R is the observed fluorescence ratio. The values Rmax and Rmin (maximum and minimum ratios) and the constant Sf2/Sb2 (fluorescence of free and Ca^2+-bound Fura-2 at 380 nm) were calculated using 1 μmol/liter ionomycin (Calbiochem), 5 μmol/liter nigericin, 10 μmol/liter monensin (Sigma), and 5 mmol/liter EGTA to equilibrate intracellular and extracellular Ca^2+ in intact Fura-2-loaded cells. The dissociation constant for the Fura-2·Ca^2+ complex was taken as 224 nmol/liter. ER Ca^2+ signals were detected in Ca^2+ sensor ER-LAR-GECO1 (Addgene, Cambridge, Mass., USA) expressing M1 cells. Cells were excited at 560 nm and emission was recorded between 620±30 nm.

PKD1-/- mice (ADPKD) [4] = assay: Inhibition of cyst growth in vivo in PKD1-/- mice; parameters: species or system mouse; details: 1 μg/kg/day I.P. for 30 days
Method: Inducible and tubule-specific PKD1 knockout (PKD1−/−) leads to ADPKD and polycystic kidney disease. Wt mice and mice with a knockout in the gene PKD1 were treated with benzbromarone (1 μg/kg/day intraperitoneal (I.P.) benzbromarone (BBR)) for 30 days starting 4 weeks after induction of the PKD1 knockout at postnatal (PN) 20-22.

PKD1-/- mice (ADPKD) [5] = assay: Ki-67 cell proliferation in kidneys of PKD1-/- mice; format: in vivo, mouse; details: kidneys of PKD1-/- mice treated with benzbromarone
From the text: Cell proliferation was examined in kidneys of control animals (PKD+/+) and PKD1−/− animals using the proliferation marker Ki-67.

TMEM16A = target: T1, TMEM16A (Homo sapiens, UniProt Q5XXA6); details: references [1, 2]; cited from earlier work
T1 sequence (Q5XXA6 1-986): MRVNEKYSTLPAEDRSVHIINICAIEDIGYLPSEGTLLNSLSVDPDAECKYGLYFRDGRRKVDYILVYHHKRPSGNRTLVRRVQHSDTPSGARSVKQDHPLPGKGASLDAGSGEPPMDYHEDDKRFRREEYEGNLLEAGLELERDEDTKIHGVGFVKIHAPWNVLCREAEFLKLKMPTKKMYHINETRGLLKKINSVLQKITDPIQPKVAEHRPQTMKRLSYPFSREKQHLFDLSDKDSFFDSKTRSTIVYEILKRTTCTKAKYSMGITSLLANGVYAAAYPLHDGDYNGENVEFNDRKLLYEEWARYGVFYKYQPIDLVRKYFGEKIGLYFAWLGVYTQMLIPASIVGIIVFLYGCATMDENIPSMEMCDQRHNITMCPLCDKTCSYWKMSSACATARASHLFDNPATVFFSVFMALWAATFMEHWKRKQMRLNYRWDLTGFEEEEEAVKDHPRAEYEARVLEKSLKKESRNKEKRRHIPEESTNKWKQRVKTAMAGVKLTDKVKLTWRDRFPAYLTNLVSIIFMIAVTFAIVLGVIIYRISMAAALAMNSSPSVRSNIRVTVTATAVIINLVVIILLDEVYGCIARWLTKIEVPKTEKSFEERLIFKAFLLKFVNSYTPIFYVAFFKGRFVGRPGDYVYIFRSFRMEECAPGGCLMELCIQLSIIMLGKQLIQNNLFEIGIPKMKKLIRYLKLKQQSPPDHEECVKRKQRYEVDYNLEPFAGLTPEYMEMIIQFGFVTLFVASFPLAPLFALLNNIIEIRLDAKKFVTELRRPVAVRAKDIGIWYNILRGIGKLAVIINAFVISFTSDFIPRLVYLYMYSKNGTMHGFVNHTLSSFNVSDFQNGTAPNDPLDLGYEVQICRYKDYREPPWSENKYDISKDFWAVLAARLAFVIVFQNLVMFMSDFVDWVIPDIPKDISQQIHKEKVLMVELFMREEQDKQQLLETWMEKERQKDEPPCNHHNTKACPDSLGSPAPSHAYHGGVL

[6] = system: Polycystin-1-deficient collecting duct (plMDCK) cells; assay: plMDCK cyst growth in collagen I matrix; format: cell-based, dog; details: 10 μM forskolin, 5 days; for mean cyst volumes: 0.1 μM or 1 μM, vs control
Method: Polycystin-1-deficient collecting duct ([…]) cells were resuspended within a collagen I matrix where they spontaneously form cysts and grow in a secretion-dependent manner in the presence of 10 μM forskolin for 5 days. Medium was supplemented with either 0.1 μM or 1 μM niclosamide or 0.1 μM or 1 μM nitazoxanide. Thereafter, cyst volumes were analyzed. […] The effect of niclosamide and derivatives thereof, e.g. nitazoxanide, on cyst growth was analyzed. Particularly, it was analyzed whether there is a dose-dependent effect on cyst growth. Polycystin-1-deficient collecting duct (p1MDCK) cells were resuspended in a collagen I matrix to form cysts in vitro and were cultured in the presence of […] forskolin for 5 days. The cells were treated with either 0.1 μM or 1 μM niclosamide, or with 0.1 μM or 1 μM of an exemplary niclosamide derivative, namely nitazoxanide.

CC(C)(C)C1CCc2c(sc(NC(=O)c3ccco3)c2C(=O)O)C1 (stereo not shown) [CaCCinhAO1]
increase in cyst volume upon knockdown of PKD1/PKD2 (M1 collecting duct cells [1]): blocked increase in volume | increase in cyst volume upon knockdown of PKD1/PKD2 (M1 collecting duct cells [1]; listed as CaCCinhA01): inhibition | increase in proliferation (Ki-67) upon knockdown of PKD1/PKD2 (M1 collecting duct cells [2]): blocked increase in volume and proliferation | increase in proliferation (Ki-67) upon knockdown of PKD1/PKD2 (M1 collecting duct cells [2]; listed as CaCCinhA01): inhibition

COc1ccc(CCCOC(Cn2ccnc2)c2ccc(OC)cc2)cc1 (stereo not shown) [SK&F96365]
enhanced Ca2+ entry (SOCE) [3]: inhibited enhanced Ca^2+ entry | enhanced CPA-induced store release [3]: abolished enhanced CPA-induced store release

Cc1nnsc1C(=O)Nc1ccc(-n2nc(C(F)(F)F)cc2C(F)(F)F)cc1 [YM58483]
enhanced Ca2+ entry (SOCE) [3]: inhibited enhanced Ca^2+ entry | enhanced CPA-induced store release [3]: abolished enhanced CPA-induced store release

N=C(N)NC(=O)c1nc(Cl)c(N)nc1N [amiloride]
M1 organoid volume when grown in amiloride (M1 collecting duct cells [1]; M1 renal organoids, data not shown): increase their volume

CCc1oc2ccccc2c1C(=O)c1cc(Br)c(O)c(Br)c1 [benzbromarone]
increase in cyst volume upon knockdown of PKD1/PKD2 (M1 collecting duct cells [1]): inhibition | increase in cyst volume upon knockdown of PKD1/PKD2 (M1 collecting duct cells [1]; listed as Benzbromarone): blocked increase in volume | increase in proliferation (Ki-67) upon knockdown of PKD1/PKD2 (M1 collecting duct cells [2]): inhibition | increase in proliferation (Ki-67) upon knockdown of PKD1/PKD2 (M1 collecting duct cells [2]; listed as Benzbromarone): blocked increase in volume and proliferation | cyst development / cyst growth (PKD1-/- mice (ADPKD) [4]): remarkable delay in cyst development | cyst development / cyst growth (PKD1-/- mice (ADPKD) [4]; listed as Benzbromarone): significantly inhibits cyst growth | pathologic cell proliferation (Ki-67) (PKD1-/- mice (ADPKD) [5]): inhibition of pathologic cell proliferation; also recorded: largely abolished pathologic proliferation | inhibition of TMEM16A (TMEM16A): potently inhibit

CCCCNc1cc(C(=O)O)cc(S(N)(=O)=O)c1Oc1ccccc1 [bumetanide]
formation of the M1 renal organoid (M1 collecting duct cells [1]; M1 organoids without knockdown, bumetanide 100 μM continuously in matrigel): did not interfere with the formation of the organoid | increase in organoid volume upon knockdown of PKD1 or PKD2 (M1 collecting duct cells [1]; shPKD1/shPKD2 M1 cells, bumetanide 100 μM, 9 days): inhibited

Cn1c(=O)c2c(ncn2C)n(C)c1=O [caffeine]
intracellular Ca2+ ([3]; mouse wt and PKD1-/- primary renal epithelial and M1 collecting duct cells): did not increase intracellular Ca^2+

O=C(Nc1ccc([N+](=O)[O-])cc1Cl)c1cc(Cl)ccc1O [niclosamide, 5-Chlor-N-(2-chlor-4-nitrophenyl)-2-hydroxybenzamid]
mean cyst volumes [6]: inhibit cyst growth in a dose-dependent manner; also recorded: significantly decreased | reduction in cyst volumes, 1 μM compared to 0.1 μM [6]: higher reduction in cyst volumes | inhibition of TMEM16A (TMEM16A): potent inhibitor

CC(=O)Oc1ccccc1C(=O)Nc1ncc([N+](=O)[O-])s1 [nitazoxanide]
mean cyst volumes [6]: inhibit cyst growth in a dose-dependent manner; also recorded: significantly decreased | reduction in cyst volumes, 1 μM compared to 0.1 μM [6]: higher reduction in cyst volumes
